Data on 2 molecules can be found in paper PMC3158281 (Nature chemical biology, 2011).

Square brackets hold non-standard residues; d marks the D form. Ends that are not written are not given here. * marks the point of attachment. FITC = O=C1OC2(c3ccc(O)cc3Oc3cc(O)ccc32)c2ccc(NC(=S)*)cc21; Pmab = not defined here; PEG = not defined here

The test system of one assay is HeLa cells. Kind of assay: Mitotic arrest and apoptotic cell death in cultured HeLa cells. Type of assay: cell-based, human. Particulars: 100 nM.
In a further assay the target is T1, peptide 9 (synthetic construct, not fully specified (residue 3); reading uncertain).
T1 chain: {FITC-PEG}-PLHS[Pmab]
The assay is described as follows: fluorescence polarization.

For the molecule `CC[C@@H]1C(=O)N(C)c2cnc(Nc3ccc(C(=O)NC4CCN(C)CC4)cc3OC)nc2N1C1CCCC1` [BI 2536], in the assay on HeLa cells, the “induction of mitotic arrest and apoptotic cell death” value was “induced a greatly delayed, but pronounced mitotic arrest and apoptotic cell death”.

B1: Plk3 PBD PBD (protein)
chain: WVSKWVDYSNKFGFGYQLSSRRVAVLFNDGTHMALSANRKTVHYNPTSTKHFSFSVGAVPRALQPQLGILRYFASYMEQHLMKGGDLPSVEEVEVPAPPLLLQWVKTDQALLMLFSDGTVQVNFYGDHTKLILSGWEPLLVTFVARNRSACTYLASHLRQLGCSPDLRQRLRYALRLLRDRSP
Molecule B1 returned an equilibrium dissociation constant (Kd) with peptide 9 of 460 nM.
